Legend:
HepG2 = assay: Toxicity assay (MTS/MTT dye), HepG2 cells; conditions: for Cytotoxicity HepG2 IC30: HepG2, three day-incubation (Table 1); for IC50: read-out: Cytotoxicity HepG2 IC50, HepG2, three day-incubation (Table 3)
Description: After a three day-incubation for HepG2, or 5 days for human PBM cells, cell viability and mitochondrial activity were measured in a colorimetric assay using the MTS- or MTT dye method (Promega, Madison, Wis.).

HIV-1 xxBRU (wild type) = assay: HIV-1 Q-RT-PCR assay in human PBM cells, strain xxBRU; type: cell-based; conditions: 5 days, viral RNA reduced by 90%
Description: Human PBM cells (1×10^6 cells/T25 flask) were PHA stimulated for 2 or 3 days, and infected with either a wild type (LAI and xxBRU) or a 3TC-resistant (xxBRU 184V) HIV-1 strain at 100 TCID50, as previously described (27). The culture was kept for 5 days in presence of test compounds at serial 1-log dilutions. Subsequently, human PBM cells were removed from the culture supernatant by centrifugation (10 minutes, 400×g, 4° C.). This clarified supernatant was tested either in the RT-assay, or in the Q-RT-PCR assay.
Viral RNA present in the culture supernatant was prepared using commercially available columns (QIAamp Viral RNA mini Kit, Qiagen, Valencia, Calif.). Viral RNA was detected in real-time by monitoring increases in fluorescence signal that resulted from degradation of a quenched fluorescent probe molecule following the hybridization of the probe to the arnplified viral DNA (TaqMan 7700 chemistry, Applied Biosystems, Foster City, Calif.). The TaqMan probe and primers were designed using the Primer Express software (Applied Biosystems); they cover highly conserved sequences complementary to an 81 base pair long fragment from the HIV-1 RT gene between codon 230 and 257 of the group MHIV-1 genome; • probe 5′-6FAM-[…]-TAMRA-3′ (Sequence 1) • sense primer: 5′-[…]-3′ (Sequence 2); and • antisense primer 5′-[…]-3′ (Sequence 3).
A total of 5 μL RNA was RT-amplified using reagents and conditions as described by the manufacturer (Applied Biosystems). […] Copy numbers were calibrated using the Roche Amplicor HIV-1 Monitor test™ (Roche Diagnostics, Branchburg, N.J.) on a 1-log dilution series of a clinical HIV-1 genotype B isolate (attenuated in vitro to obtain a high viral load). The 10-6 diluted sample became positive at threshold cycle (Ct=PCR cycle threshold where a sample becomes detectable)=35.52, which corresponded to 1,410 copies/mL in the Roche monitor HIV-1 version II assay. When validated over a dynamic range of 3 logs of virus, there was excellent correlation (r2˜1) between the two methodologies. […] Therefore, the currently designed primer and probe set allowed reliable quantification of both clinical samples and HIV-1 in vitro preparations.
HIV-1 present in culture supernatant fluids was quantified by two different methodologies: i) the Q-RT-PCR with read-out in log copies/mL; and ii) the endogenous viral RT assay on cell supernatant with read-out in log counts per minute/mL (CPM/mL). Upon addition of antiviral compounds to the culture media, a dose-related decrease in virus production was observed. Although the two methodologies measured different parameters (viral RNA versus active RT enzyme), results were not markedly different from each other. The HIV-1 Q-RT-PCR results were compared with a previously established cell-based antiviral drug evaluation assay (endogenous HIV-1 RT polymerization activity in cell supematant)(27).

[1] = system: mitochondrial cytochrome C oxidase subunit II (COXII) gene; type: cell-based, human; conditions: HepG2, 10 μM, 7 days; for COXIINrDNA (range) relative to control: COXII DNA normalized to rDNA
[2] = Human immunodeficiency virus 1, PBMC, 120 h

## Nc1nc(=O)n([C@H]2S[C@@H](CO)C=C2F)cc1F [Compound L-18, (+)-1-[(1S,4R)-2,3-dideoxy-2,3-didehydro-2-fluoro-4-thio-β-L-ribofuranosyl]-5-fluoro-cytosine]
HepG2
  Cytotoxicity HepG2 IC30: >100 µM
  IC50: > 100 µM
HIV-1 xxBRU (wild type)
  EC90: 0.94 µM
[1]; 2-ΔΔCt
  COXIINrDNA (range) relative to control: 1.12 (0.76-1.64)
[1]
  Average ΔCt ± SD COXII DNA: −0.06 ± 0.24
  Average ΔΔCt ± SD COXII-rDNA: −0.16 ± 0.56

## Nc1nc(=O)n([C@@H]2S[C@H](CO)C=C2F)cc1F [Compound D-18, (−)-1-[(1S,4R)-2,3-dideoxy-2,3-didehydro-2-fluoro-4-thio-β-D-ribofuranosyl]-5-fluorocytosine]
HepG2
  Cytotoxicity HepG2 IC30: >100 µM
  IC50: > 100 µM
HIV-1 xxBRU (wild type)
  EC90: 73.9 µM
[1]; 2-ΔΔCt
  COXIINrDNA (range) relative to control: 0.96 (0.78-1.17)
[1]
  Average ΔCt ± SD COXII DNA: −0.39 ± 0.43
  Average ΔΔCt ± SD COXII-rDNA: 0.06 ± 0.29

## Nc1ccn([C@@H]2C=C(F)[C@H](CO)O2)c(=O)n1 [Compound 10, 1-(2,3-Dideoxy-3-fluoro-β-L-glycero-pent-2-eno-furanosyl)cytosine]
HepG2
  Cytotoxicity HepG2 IC30: >100 µM
HIV-1 xxBRU (wild type); [2]
  EC90: 35.4 µM
[1]; 2-ΔΔCt
  COXIINrDNA (range) relative to control: 1.16 (0.81-1.64)
[1]
  Average ΔCt ± SD COXII DNA: −0.29 ± 0.19
  Average ΔΔCt ± SD COXII-rDNA: −0.21 ± 0.51

## Nc1ccn([C@@H]2C=C(F)[C@H](CO)O2)c(=O)n1 [Compound 23, 1-(2,3-Didcoxy-3-fluoro-β-L-glycero-pent-2-eno-furanosyl)cytosine]
HepG2
  IC50: > 100 µM
HIV-1 xxBRU (wild type)
  EC90: 0.6 µM
[1]; 2-ΔΔCt
  COXIINrDNA (range) relative to control: 0.78 (0.59-1.04)
[1]
  Average ΔCt ± SD COXII DNA: −0.16 ± 0.17
  Average ΔΔCt ± SD COXII-rDNA: 0.36 ± 0.41

## Cc1cn([C@H]2C[C@H](N=[N+]=[N-])[C@@H](CO)O2)c(=O)[nH]c1=O [AZT, 3′-azido-3′-deoxythymidine, reference compound]
HIV-1 xxBRU (wild type); [2]
  EC90: 0.01 µM
[1]
  Average ΔCt ± SD COXII DNA: 0.25 ± 0.13
  Average ΔΔCt ± SD COXII-rDNA: −0.61 ± 0.56
  Average ΔΔCt ± SD COXII-β-actin: 0.16 ± 0.44

## Nc1ccn([C@H]2S[C@@H](CO)C=C2F)c(=O)n1 [Compound L-17, (+)-1-[(1S,4R)-2,3-dideoxy-2,3-didehydro-2-fluoro-4-thio-β-L-ribofuranosyl]-cytosine]
HepG2
  Cytotoxicity HepG2 IC30: >100 µM
  IC50: > 100 µM
HIV-1 xxBRU (wild type)
  EC90: 2.1 µM
[1]; 2-ΔΔCt
  COXIINrDNA (range) relative to control: 1.46 (0.87-2.47)
[1]
  Average ΔCt ± SD COXII DNA: −0.05 ± 0.16
  Average ΔΔCt ± SD COXII-rDNA: −0.55 ± 0.75

## Nc1ccn([C@@H]2S[C@H](CO)C=C2F)c(=O)n1 [Compound D-17, (−)-1-[(1S,4R)-2,3-dideoxy-2,3-didehydro-2-fluoro4-thio-β-D-ribofuranosyl]-cytosine]
HepG2
  Cytotoxicity HepG2 IC30: >100 µM
  IC50: > 100 µM
HIV-1 xxBRU (wild type)
  EC90: 5.2 µM
[1]; 2-ΔΔCt
  COXIINrDNA (range) relative to control: 1.94 (1.31-2.87)
[1]
  Average ΔCt ± SD COXII DNA: −0.14 ± 0.10
  Average ΔΔCt ± SD COXII-rDNA: −0.96 ± 0.56

## Nc1ccn([C@@H]2CS[C@H](CO)O2)c(=O)n1 [Compound 3TC, (−)-β-2′,3′-dideoxy-3′-thiacytidine, reference compound]
HepG2
  Cytotoxicity HepG2 IC30: >100 µM
HIV-1 xxBRU (wild type); [2]
  EC90: 0.06 µM
[1]; 2-ΔΔCt
  COXIINrDNA (range) relative to control: 1.31 (0.92-1.88)
[1]; COXII DNA normalized to β-actin DNA, 2-ΔΔCt
  COXIINβ-actin DNA (range) relative to control: 1.02 (0.75-1.37)
[1]
  Average ΔCt ± SD COXII DNA: 0.08 ± 0.33
  Average ΔΔCt ± SD COXII-rDNA: −0.39 ± 0.50
  Average ΔΔCt ± SD COXII-β-actin: −0.02 ± 0.43

From patent US6949522B2, “β-2′- or 3′-halonucleosides” (Pharmasset, Inc., priority 2001, dated 2005)
